The nature of series [1]: in vivo. The conditions noted are these: Sprague-Dawley, rat, po, 10 mg/kg.
Series [2] in a line: in vivo. The conditions noted are these: Sprague-Dawley, rat, iv, 1 mg/kg.
A short description of series [3]: in vivo. The conditions noted are these: Sprague-Dawley, rat, iv, 1 mg/kg. The source holds these as a separate data set.
Series [4] can be described thus: in vivo. The conditions noted are these: Sprague-Dawley, rat, po, 10 mg/kg. This is another data set of the same source.
Series [5] in a line: in vivo. The conditions noted are these: Sprague-Dawley, rat, po, 10 mg/kg. This is another data set of the same source.
Series [6] is described as follows: in vivo. The conditions noted are these: Sprague-Dawley, rat, iv, 1 mg/kg. This is another data set of the same source.
Series [7] is described as follows: in vivo. The conditions noted are these: Sprague-Dawley, rat, iv, 1 mg/kg. This is another data set of the same source.
Series [8] can be described thus: in vivo. The conditions noted are these: Sprague-Dawley, rat, po, 10 mg/kg. The source holds these as a separate data set.
A short description of series [9]: in vivo. The conditions noted are these: Sprague-Dawley, rat, po, 10 mg/kg. This is another data set of the same source.
Series [10] in a line: in vivo. The conditions noted are these: Sprague-Dawley, rat, po, 10 mg/kg. The source holds these as a separate data set.
The nature of series [11]: in vivo. The conditions noted are these: Sprague-Dawley, rat, po, 10 mg/kg. This is another data set of the same source.
Series [12] is described as follows: in vivo. The conditions noted are these: Sprague-Dawley, rat, iv, 1 mg/kg. The source holds these as a separate data set.
Series [13] is described as follows: in vivo. The conditions noted are these: Sprague-Dawley, rat, iv, 1 mg/kg. This is another data set of the same source.

Regarding `CCS(=O)(=O)n1cc(-c2nc(Nc3ccc4c(ccn4CCN(C)C)c3)ncc2C(F)(F)F)c2ccccc21`, the AUC(0-inf) – broadly, the area under the concentration-time curve extrapolated to infinity – at 24 h came to 678 ng·h/mL in the series “in vivo [1]” and 242 ng·h/mL in “in vivo [13]”. The Cmax (usually the highest concentration seen after dosing) at 24 h in the series “in vivo [2]” was 130 ng/mL; in “in vivo [10]” it was 54.7 ng/mL. Moreover, the half-life (as a rule, how long it takes for the measured level to halve) at 24 h in the series “in vivo [3]” is 3.67 h; in the series “in vivo [8]” it was 5.37 h. The MRT inf (commonly a mean duration of stay, worked out from the concentration-time curve) at 24 h in “in vivo [4]” turned out to be 9.62 h; in the series “in vivo [7]” it was 4.33 h. Also, the Tmax (commonly the time at which the peak concentration occurs) at 24 h stood at 8 h in the series “in vivo [5]” and 4.8 min in the series “in vivo [12]”. In addition, the clearance (commonly the rate of elimination divided by the concentration) at 24 h in the series “in vivo [6]” is 70.2 mL/min/kg. The bioavailability (in general, the share of a dose that reaches the circulation, judged against a reference dose that is usually intravenous) at 24 h in the series “in vivo [9]” amounted to 28.1%. The CL/F – broadly, clearance divided by bioavailability, as obtained after extravascular dosing – at 24 h in “in vivo [11]” is 278 mL/min/kg.

(Values after ChEMBL document CHEMBL5338765, “Discovery of Potent and Wild-Type-Sparing Fourth-Generation EGFR Inhibitors for Treatment of Osimertinib-Resistance NSCLC” (J Med Chem, 2023).)
